Consider 2 compounds from US20030149021A1, “Piperazine mono(dithio)carbamate ester compounds and analogs thereof: preparation method and uses thereof” (Medinox, Inc., priority 2001, published 2003).

Data set [1] relates to Mouse sarcoma 180 (S180). Briefly: Anticancer activity against implanted mouse sarcoma 180 (S180), tumor weight. The format is in vivo, mice. Conditions: for Inhibition (%) (% reduction in tumor mass): S180 in mice, tumor harvested at day 12. As to the method: Animals: Kuiming mice 18-22 g were provided by the animal department of Bejing Medical University. ICR mice were provided by Beijing Weitonglihua Experiemental Animal Technology, Inc. Each experiment used the same number of male mice and female mice.
Tumor cell line: Mouse sarcoma 180 (S180) was provided by the pharmaceutical group of National Key Laboratory of Natural and Mimic Medicine.
Compound 42 was prepared by the School of Pharmaceutical Sciences of Peking University. Cyclophosphoramide was purchased from Shanghai Hualian Pharmaceutical, Inc.
Tumor was removed from the mouse abdominal cavity. The tumor was diluted to 5×10^6/ml and implanted to the left axilla subcutaneously (0.2 ml per mouse) under sterile conditions. Twenty four (24) hours after implantation, animals were divided into two groups (10 mice per group), either 42 or cyclophosphoramide was given orally to animals once a day for 10 days.
At day 12, the tumor was harvested and the average tumor weight of each group was calculated.

Data set [2] in a line: Preliminary acute toxicity in mice. The format is in vivo.

Consider `O=P1(N(CCCl)CCCl)NCCCO1` (stereo not drawn) [Cyclophosphoramide, reference compound], for which the “Inhibition (%) (% reduction in tumor mass)” value in data set [1] (30 mg/kg orally once a day for 10 days) is recorded as 73%.

As to `CN1CCN(C(=S)SCCC(C#N)(c2ccccc2)c2ccccc2)CC1.Cl` [Compound 42, 4-Methyl-piperazine-1-carbodithioc acid 3-cyano-3,3-diphenyl-propyl ester hydrochloride], the “toxicity (in words)” value in data set [2] is listed as “low toxicity”. Besides, the “No of Death” value in data set [2] (mice, dose 10 G/kg, 20 animals at start) is listed as 0. Moreover, in data set [1], the “inhibition against S180 (in words)” value is given as “significant inhibition”. The “Inhibition (%) (% reduction in tumor mass)” value in data set [1] (100 mg/kg orally once a day for 10 days) came to 74%; in data set [1] (500 mg/kg orally once a day for 10 days), 80%.
